{"source": "patent US7947839B2", "about": "“Heterocyclic-substituted bis-1,8 naphthalimide compounds, antibody drug conjugates, and methods of use” (Genentech, Inc., priority 2004, dated 2011)", "origin": "cited, not measured here", "key": {"human melanoma (LOX)": {"tested_on": "human melanoma (LOX)", "conditions": "in vivo; cited from earlier work"}, "mouse xenograft models": {"tested_on": "mouse xenograft models", "conditions": "repeated dosing regimens; no strong schedule dependency; cited from earlier work"}, "topoisomerase II": {"tested_on": "topoisomerase II", "conditions": "unlike most other known topoisomerase II inhibitors; cited from earlier work"}, "[1]": {"target": "T1, topoisomerase I isolated from calf thymus (Bos taurus, UniProt F1MN93)", "T1 construct": "topoisomerase I isolated from calf thymus; from tissue; host or cells: calf thymus", "T1 sequence (F1MN93 1-767)": "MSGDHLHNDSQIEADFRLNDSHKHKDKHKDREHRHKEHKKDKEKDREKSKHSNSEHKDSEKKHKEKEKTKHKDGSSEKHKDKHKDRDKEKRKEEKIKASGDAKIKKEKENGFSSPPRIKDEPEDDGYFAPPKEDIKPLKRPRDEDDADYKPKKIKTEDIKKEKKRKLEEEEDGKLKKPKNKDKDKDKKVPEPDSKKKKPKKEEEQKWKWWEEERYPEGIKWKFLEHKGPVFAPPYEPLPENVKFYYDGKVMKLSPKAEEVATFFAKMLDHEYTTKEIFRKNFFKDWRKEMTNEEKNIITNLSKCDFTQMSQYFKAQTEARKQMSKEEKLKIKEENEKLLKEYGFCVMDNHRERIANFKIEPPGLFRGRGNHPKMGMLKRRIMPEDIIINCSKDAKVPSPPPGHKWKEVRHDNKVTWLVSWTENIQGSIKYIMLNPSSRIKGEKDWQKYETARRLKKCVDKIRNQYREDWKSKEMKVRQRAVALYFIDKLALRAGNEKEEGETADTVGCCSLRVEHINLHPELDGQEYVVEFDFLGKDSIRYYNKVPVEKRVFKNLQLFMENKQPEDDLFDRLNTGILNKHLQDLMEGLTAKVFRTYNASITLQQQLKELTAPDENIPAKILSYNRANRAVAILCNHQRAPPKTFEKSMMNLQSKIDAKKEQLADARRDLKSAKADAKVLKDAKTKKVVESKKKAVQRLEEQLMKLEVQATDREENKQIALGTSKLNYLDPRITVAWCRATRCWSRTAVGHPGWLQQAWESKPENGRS", "conditions": "supercoiled DNA relaxation assay; cited from earlier work"}, "[2]": {"tested_on": "MX-1 (mammary carcinoma) xenografts", "conditions": "iv five daily doses at 20 mg/kg (2 cycles), or every 3 days for two doses at 55 mg/kg (2 cycles), or weekly for four doses; cited from earlier work"}, "[3]": {"tested_on": "human colon (CX-1) carcinoma xenograft", "conditions": "in vivo; cited from earlier work"}, "[4]": {"tested_on": "human lung (LX-1) carcinoma xenograft", "conditions": "in vivo; cited from earlier work"}}, "note": "pIC50: −log10 of the molar value."}
{"smiles": "O=C1c2cccc3cccc(c23)C(=O)N1CCNCCCNCCN1C(=O)c2cccc3cccc(c23)C1=O", "note": "[elinafide]", "values": [{"measurement": "efficacy in human melanoma (LOX) models", "setting": "human melanoma (LOX)", "result": "curative"}, {"measurement": "antitumor activity", "setting": "mouse xenograft models", "result": "demonstrated antitumor activity"}, {"measurement": "DNA cleavage", "setting": "topoisomerase II", "result": "does not cause significant DNA cleavage"}, {"measurement": "pIC50", "setting": "[1]", "result": 5.30}, {"measurement": "regression of MX-1 (mammary carcinoma) xenografts", "setting": "[2]", "result": "complete regression"}, {"measurement": "tumor regression in human colon (CX-1) carcinoma xenograft model", "setting": "[3]", "result": "partial and complete tumor regression, as well as some cures"}, {"measurement": "tumor regression in human lung (LX-1) carcinoma xenograft model", "setting": "[4]", "result": "partial and complete tumor regression, as well as some cures"}]}
